The structures appear in SMILES notation.

What is called IC50 is the midpoint of a concentration-inhibition curve.

One experiment deals with T1, MMP-2 (Homo sapiens, UniProt P08253).
T1 construct: purchased Calbiochem (Merck-Millipore)
T1 sequence (P08253 110-660): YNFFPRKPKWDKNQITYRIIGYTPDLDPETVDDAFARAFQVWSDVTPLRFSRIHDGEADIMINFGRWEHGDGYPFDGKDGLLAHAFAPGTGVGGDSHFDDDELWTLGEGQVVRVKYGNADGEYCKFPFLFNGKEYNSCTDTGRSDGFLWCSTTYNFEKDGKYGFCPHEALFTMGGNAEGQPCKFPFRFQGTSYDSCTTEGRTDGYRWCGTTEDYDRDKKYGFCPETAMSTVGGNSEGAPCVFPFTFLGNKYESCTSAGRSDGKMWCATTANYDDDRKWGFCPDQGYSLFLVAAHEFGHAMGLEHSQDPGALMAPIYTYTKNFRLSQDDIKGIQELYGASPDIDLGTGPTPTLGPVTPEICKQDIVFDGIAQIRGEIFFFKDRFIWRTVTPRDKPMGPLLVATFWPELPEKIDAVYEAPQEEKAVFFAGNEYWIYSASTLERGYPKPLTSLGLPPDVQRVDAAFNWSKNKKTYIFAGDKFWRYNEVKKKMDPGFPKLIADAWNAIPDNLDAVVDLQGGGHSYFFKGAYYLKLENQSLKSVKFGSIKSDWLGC
As to the kind of experiment: MMP-2 fluorometric inhibition assay. The format is biochemical. As to conditions: mean of three independent experiments in duplicate, read-out: In vitro inhibitory activity IC50 on MMP-2. The procedure: (§1) The newly synthesized bivalent derivatives 1–3 were then tested in vitro on human recombinant ADAM8 in comparison with JG26 by a fluorometric assay. The inhibitory activity against a panel of MMPs and ADAM10/17 was determined as well to assess their selectivity profile. […]
(§2) VI. Biological Activity on Isolated Enzymes
(§3) MMP and ADAM10 inhibition assays.
(§4) Recombinant human MMP-14 catalytic domain was a kind gift of Prof. Gillian Murphy (Department of […]
(§5) Oncology, University of Cambridge, UK). Pro-MMP-1, pro-MMP-2, and pro-MMP-9, were purchased […]
(§6) from Calbiochem (Merck-Millipore). Pro-MMP-12 and ADAM10 were purchased from R&D Systems.
(§7) Proenzymes were activated immediately prior to use with p-aminophenylmercuric acetate (APMA 2 […]
(§8) mM for 1 h at 37°C for MMP-2 and MMP-1, 1 mM for 1 h at 37°C for MMP-9). Pro-MMP-12 was […]
(§9) auto activated by incubating in the fluorometric assay buffer (FAB: Tris 50 mM, pH = 7.5, NaCl 150 […]
(§10) mM, CaCl2 10 mM, Brij 35 0.05% and DMSO 1%) for 30 h at 37°C. For assay measurements, each […]
(§11) inhibitor stock solution (DMSO, 10 mM) was further diluted in FAB at seven different concentrations.
(§12) Activated enzyme (final concentration 0.56 nM for MMP-2, 1.3 nM for MMP-9, 1.0 nM for MMP- […]
(§13) 14cd, 2.0 nM for MMP-1, 2.3 nM for MMP-12 and 20 nM for ADAM10) and inhibitor solutions were […]
(§14) incubated in the assay buffer for 3 h at 25 °C. ADAM10 was incubated for 1 h at 37°C in a different […]
(§15) buffer at pH 9 (Tris 25 mM, ZnCl2 25 µM, Brij-35 0.005 %). After the addition of 200 µM solution of […]
(§16) the fluorogenic substrate Mca-Lys-Pro-Leu-Gly-Leu-Dap(Dnp)-Ala-Arg-NH2 (Bachem) for all the […]
(§17) enzymes in DMSO (final concentration 2 µM for all enzymes, 10 µM for ADAM10), the hydrolysis […]
(§18) was monitored every 10 sec. for 15 min. recording the increase in fluorescence (λ ex = 325 nm, λ em = […]
(§19) 400 nm) using a Molecular Devices SpectraMax Gemini XPS plate reader. The assays were performed […]
(§20) in triplicate in a total volume of 200 μL per well in 96-well microtitre plates (Corning, black, NBS).
(§21) Control wells lack inhibitor. The MMP inhibition activity was expressed in relative fluorescent units […]
(RFU). Percent of inhibition was calculated from control reactions without the inhibitor. IC50 was determined using the formula: v i/v o = 1/(1 + [I]/ IC50), where v i is the initial velocity of substrate cleavage in the presence of the inhibitor at concentration [I] and v o is the initial velocity in the absence of the inhibitor. Results were analyzed using SoftMax Pro software (version 5.4.3, Molecular Devices, Sunnyvale, CA) and Prism Software version 5.0 (GraphPad Software, Inc., La Jolla, CA, USA).
ADAM8 and ADAM17 inhibition assays […]

A further experiment concerns the target T2, MMP-9 (Homo sapiens, UniProt P14780).
T2 construct: purchased Calbiochem (Merck-Millipore)
Description: MMP-9 fluorometric inhibition assay. As to conditions: mean of three independent experiments in duplicate, read-out: In vitro inhibitory activity IC50 on MMP-9. The format is biochemical. As for the experimental part: as §1, §2, §3, §4, §5, §6, §7, §8, §9, §10, §11, §12, §13, §14, §15, §16, §17, §18, §19, §20, §21
(RFU). Percent of inhibition was calculated from control reactions without the inhibitor. IC50 was determined using the formula: v i/v o = 1/(1 + [I]/ IC50), where v i is the initial velocity of substrate cleavage in the presence of the inhibitor at concentration [I] and v o is the initial velocity in the absence of the inhibitor. Results were analyzed using SoftMax Pro software (version 5.4.3, Molecular Devices, Sunnyvale, CA) and Prism Software version 5.0 (GraphPad Software, Inc., La Jolla, CA, USA). […]

T2 sequence (P14780 107-707 limits assumed, species assumed): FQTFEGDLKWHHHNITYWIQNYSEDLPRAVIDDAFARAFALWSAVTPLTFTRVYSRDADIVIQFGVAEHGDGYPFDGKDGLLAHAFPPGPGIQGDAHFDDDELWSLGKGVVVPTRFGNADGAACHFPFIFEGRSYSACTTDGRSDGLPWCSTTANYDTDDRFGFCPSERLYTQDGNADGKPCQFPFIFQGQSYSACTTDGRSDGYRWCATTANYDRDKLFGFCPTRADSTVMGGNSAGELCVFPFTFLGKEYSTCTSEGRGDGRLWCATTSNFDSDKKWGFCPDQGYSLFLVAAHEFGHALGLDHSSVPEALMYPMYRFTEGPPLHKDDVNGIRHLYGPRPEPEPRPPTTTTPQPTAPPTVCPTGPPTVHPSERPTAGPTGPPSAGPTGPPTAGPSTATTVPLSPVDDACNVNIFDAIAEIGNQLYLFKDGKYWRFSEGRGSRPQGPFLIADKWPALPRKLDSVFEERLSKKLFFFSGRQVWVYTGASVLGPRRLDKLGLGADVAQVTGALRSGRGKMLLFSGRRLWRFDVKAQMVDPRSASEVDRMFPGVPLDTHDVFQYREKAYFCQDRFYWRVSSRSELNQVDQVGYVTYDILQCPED

Turning to `O=C(CCCNC(=O)c1cccc(C(=O)NCCCC(=O)NCCC[C@@H](NS(=O)(=O)c2ccc(OCc3cc(Br)cc(Br)c3)cc2)C(=O)NO)c1)NCCC[C@@H](NS(=O)(=O)c1ccc(OCc2cc(Br)cc(Br)c2)cc1)C(=O)NO` [Compound 1], the values for the IC50 at MMP-2 and on MMP-9 were 4.66 µM and 3.32 µM, respectively.
The like results for `O=C(NCCC[C@@H](NS(=O)(=O)c1ccc(OCc2cc(Br)cc(Br)c2)cc1)C(=O)NO)c1cccc(C(=O)NCCC[C@@H](NS(=O)(=O)c2ccc(OCc3cc(Br)cc(Br)c3)cc2)C(=O)NO)c1` [Compound 2] were, in that order, 3 µM and 8.8 µM.
In the case of `O=C(NCCC[C@@H](NS(=O)(=O)c1ccc(OCc2cc(Br)cc(Br)c2)cc1)C(=O)NO)NCCC[C@@H](NS(=O)(=O)c1ccc(OCc2cc(Br)cc(Br)c2)cc1)C(=O)NO` [Compound 3], the IC50 came out at 0.9 µM on MMP-2 and 13.5 µM at MMP-9.
The like results for `NC(=O)NCCC[C@@H](NS(=O)(=O)c1ccc(OCc2cc(Br)cc(Br)c2)cc1)C(=O)NO` [JG26, reference compound] were, in that order, 0.24 µM and 1.63 µM.

For the origin of these results see publication PMC8805605, “Discovery of Dimeric Arylsulfonamides as Potent ADAM8 Inhibitors” (ACS Medicinal Chemistry Letters, 2021).
